Experimental data published in patent publication US20150011466A1, “APJ Receptor Compounds” (priority 2012, published 2015).
Where two headings read alike, the source gives them in different places. Where a SMILES comes first, the peptide text is derived from it. [ ]: non-standard residue; d: D form. The star is where a group is joined. Palmitoyl = CCCCCCCCCCCCCCCC(=O)*; Aib = CC(C)(N)C(=O)O

How the values were obtained:
APJ receptor = biological target: T1, APJ receptor (Homo sapiens, UniProt P35414); test: HTRF cAMP assay, inhibition of NKH477 stimulated cAMP in Human TRex cells expressing APJ upon doxycycline induction (APJ-hTREX); assay type: cell-based; conditions: for Ranking: class combining EC50 and % histamine; for percent intrinsic activity at 0.3 µM: read-out: % IA (@ 300 nM)
T1 construct: expressed in transfected cells; host or cells: Human TRex cells (doxycycline-inducible)
T1 sequence (P35414 1-380): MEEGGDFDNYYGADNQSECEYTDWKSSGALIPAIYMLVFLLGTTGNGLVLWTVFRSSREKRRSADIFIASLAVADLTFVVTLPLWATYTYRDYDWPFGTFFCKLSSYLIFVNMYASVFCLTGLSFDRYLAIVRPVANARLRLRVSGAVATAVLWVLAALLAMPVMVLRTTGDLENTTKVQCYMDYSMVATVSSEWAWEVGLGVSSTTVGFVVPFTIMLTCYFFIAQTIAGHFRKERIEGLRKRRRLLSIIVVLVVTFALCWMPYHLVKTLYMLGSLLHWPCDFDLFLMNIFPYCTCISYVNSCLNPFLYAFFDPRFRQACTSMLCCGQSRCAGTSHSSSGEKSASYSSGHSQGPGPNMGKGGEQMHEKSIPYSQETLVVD
Outline: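 Cells stimulated with NKH477 and cAMP measured by HTRF competitive immunoassay (cryptate anti-cAMP antibody, d2-labeled cAMP). APJ-hTREX cells induced with […] doxycycline and seeded overnight at 40 k/well.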

[1] = inhibition of NKH477 stimulated cAMP, APJ-hTREX cells, read-out: APJ-hTREX EC50

| Histimine (% vs. 48/40) (Histimine (% vs. 48/40)) [%] | percent intrinsic activity at 0.3 µM (APJ receptor) [%] | EC50 (APJ receptor; [1]) [nM] | SMILES | EC50 (APJ receptor) [nM] | Ranking (APJ receptor) |
| --- | --- | --- | --- | --- | --- |
| 118 | 65 | – | CCCCCCCCCCCCCCCC(=O)N[C@H](C(=O)N[C@H](C(=O)N[C@@H](Cc1ccccc1)C(=O)N[C@@H](CCCNC(=N)N)C(=O)N[C@@H](CO)C(=O)N[C@@H](CO)C(=O)N[C@@H](CCC(=O)O)C(=O)N[C@H](CCCCN)C(=O)N[C@@H](CCCNC(=N)N)C(=O)N[C@@H](CCCNC(=N)N)C(=O)N[C@@H](CO)C(=O)N[C@@H](C)C(=O)N[C@@H](Cc1ccccc1)C(=O)N[C@H](C(=O)N[C@@H](Cc1ccccc1)C(=O)N[C@H](C(N)=O)[C@@H](C)CC)[C@@H](C)CC)C(C)C)[C@@H](C)O [Compound 4] (Palmitoyl-TVFRSSE[dK]RRSAFIFI-NH2) | – | – |
| 4 | 7 | – | CCCCCCCCCCCCCCCC(=O)N[C@H](C(=O)N[C@H](C(=O)N[C@@H](Cc1ccccc1)C(=O)N[C@@H](CCCNC(=N)N)C(=O)N[C@@H](CO)C(=O)N[C@@H](CO)C(=O)N[C@@H](CCC(=O)O)C(=O)N[C@H](CCCCN)C(=O)N[C@@H](CCCNC(=N)N)C(=O)N[C@@H](CCC(N)=O)C(=O)N[C@@H](CO)C(=O)N[C@@H](C)C(=O)N[C@@H](CC(=O)O)C(=O)N[C@H](C(=O)N[C@@H](Cc1ccccc1)C(=O)N[C@H](C(N)=O)[C@@H](C)CC)[C@@H](C)CC)C(C)C)[C@@H](C)O [Compound 27] (Palmitoyl-TVFRSSE[dK]RQSADIFI-NH2) | – | – |
| 107 | 63 | – | CCCCCCCCCCCCCCCC(=O)N[C@H](C(=O)N[C@H](C(=O)N[C@@H](Cc1ccccc1)C(=O)N[C@@H](CCCNC(=N)N)C(=O)N[C@@H](CO)C(=O)N[C@@H](CO)C(=O)N[C@@H](CCC(=O)O)C(=O)N[C@H](CCCCN)C(=O)N[C@@H](CCCNC(=N)N)C(=O)N[C@@H](CCCNC(=N)N)C(=O)N[C@@H](CO)C(=O)N[C@@H](C)C(=O)N[C@@H](Cc1c[nH]cn1)C(=O)N[C@H](C(=O)N[C@@H](Cc1ccccc1)C(=O)N[C@H](C(N)=O)[C@@H](C)CC)[C@@H](C)CC)C(C)C)[C@@H](C)O [Compound 16] (Palmitoyl-TVFRSSE[dK]RRSAHIFI-NH2) | – | – |
| 25 | 46 | – | CCCCCCCCCCCCCCCC(=O)N[C@H](C(=O)N[C@H](C(=O)N[C@@H](Cc1ccccc1)C(=O)N[C@@H](CCCNC(=N)N)C(=O)N[C@@H](CO)C(=O)N[C@@H](CO)C(=O)N[C@@H](CCC(=O)O)C(=O)N[C@H](CCCCN)C(=O)N[C@@H](CCCNC(=N)N)C(=O)NCC(=O)N[C@@H](CO)C(=O)N[C@@H](C)C(=O)N[C@@H](CC(=O)O)C(=O)N[C@H](C(=O)N[C@@H](Cc1ccccc1)C(=O)N[C@H](C(N)=O)[C@@H](C)CC)[C@@H](C)CC)C(C)C)[C@@H](C)O [Compound 76] (Palmitoyl-TVFRSSE[dK]RGSADIFI-NH2) | – | – |
| 20 | 74 | 253 | CCCCCCCCCCCCCCCC(=O)N[C@H](C(=O)N[C@H](C(=O)N[C@@H](Cc1ccccc1)C(=O)N[C@@H](CCCNC(=N)N)C(=O)N[C@@H](CO)C(=O)N[C@@H](CO)C(=O)N[C@@H](CCC(=O)O)C(=O)N[C@H](CCCCN)C(=O)N[C@@H](CCCNC(=N)N)C(=O)N[C@@H](Cc1c[nH]cn1)C(=O)N[C@@H](CO)C(=O)N[C@@H](C)C(=O)N[C@@H](CC(=O)O)C(=O)N[C@H](C(=O)N[C@@H](Cc1ccccc1)C(=O)N[C@H](C(N)=O)[C@@H](C)CC)[C@@H](C)CC)C(C)C)[C@@H](C)O [Compound 14] (Palmitoyl-TVFRSSE[dK]RHSADIFI-NH2; C-terminus assumed) | – | **** (EC50 101-500 nM and % histamine<35%) |
| 63 | 98 | 84.6 | CCCCCCCCCCCCCCCC(=O)N[C@H](C(=O)N[C@H](C(=O)N[C@@H](Cc1ccccc1)C(=O)N[C@@H](CCCNC(=N)N)C(=O)N[C@@H](CO)C(=O)N[C@@H](CO)C(=O)N[C@@H](CCC(=O)O)C(=O)N[C@H](CCCCN)C(=O)N[C@@H](CCCNC(=N)N)C(=O)N[C@@H](CCCNC(=N)N)C(=O)N[C@@H](CO)C(=O)N[C@@H](C)C(=O)N[C@@H](CC(=O)O)C(=O)N[C@@H](CCC(N)=O)C(=O)N[C@@H](Cc1ccccc1)C(=O)N[C@H](C(N)=O)[C@@H](C)CC)C(C)C)[C@@H](C)O [Compound 30] (Palmitoyl-TVFRSSE[dK]RRSADQFI-NH2; C-terminus assumed) | – | *** (EC50<100 nM and % histamine>35%) |
| 53 | 64 | – | CCCCCCCCCCCCCCCC(=O)N[C@H](C(=O)N[C@H](C(=O)N[C@@H](Cc1ccccc1)C(=O)N[C@@H](CCCNC(=N)N)C(=O)N[C@@H](CO)C(=O)N[C@@H](CO)C(=O)N[C@@H](CCC(=O)O)C(=O)N[C@H](CCCCN)C(=O)N[C@@H](CCCNC(=N)N)C(=O)N[C@@H](CCCNC(=N)N)C(=O)NCC(=O)N[C@@H](C)C(=O)N[C@@H](CC(=O)O)C(=O)N[C@H](C(=O)N[C@@H](Cc1ccccc1)C(=O)N[C@H](C(N)=O)[C@@H](C)CC)[C@@H](C)CC)C(C)C)[C@@H](C)O [Compound 77] (Palmitoyl-TVFRSSE[dK]RRGADIFI-NH2) | – | – |
| 43 | 39 | – | CCCCCCCCCCCCCCCC(=O)N[C@H](C(=O)N[C@H](C(=O)N[C@@H](Cc1ccccc1)C(=O)N[C@@H](CCCNC(=N)N)C(=O)N[C@@H](CO)C(=O)N[C@@H](CO)C(=O)N[C@@H](CCC(=O)O)C(=O)N[C@H](CCCCN)C(=O)N[C@@H](CCCNC(=N)N)C(=O)N[C@@H](CCCNC(=N)N)C(=O)N[C@@H](CO)C(=O)N[C@@H](C)C(=O)N[C@@H](CC(=O)O)C(=O)N[C@H](C(=O)NCC(=O)N[C@H](C(N)=O)[C@@H](C)CC)[C@@H](C)CC)C(C)C)[C@@H](C)O [Compound 79] (Palmitoyl-TVFRSSE[dK]RRSADIGI-NH2) | – | – |
| 5 | 78 | 3350 | CCCCCCCCCCCCCCCC(=O)N[C@H](C(=O)N[C@H](C(=O)N[C@@H](Cc1ccccc1)C(=O)N[C@@H](CCCNC(=N)N)C(=O)N[C@@H](CO)C(=O)N[C@@H](CO)C(=O)N[C@@H](CCC(=O)O)C(=O)N1CCC[C@H]1C(=O)N[C@@H](CCCNC(=N)N)C(=O)N[C@@H](CCCNC(=N)N)C(=O)N[C@@H](CO)C(=O)N[C@@H](C)C(=O)N[C@@H](CC(=O)O)C(=O)N[C@H](C(=O)N[C@@H](Cc1ccccc1)C(=O)N[C@H](C(N)=O)[C@@H](C)CC)[C@@H](C)CC)C(C)C)[C@@H](C)O [Compound 48] (Palmitoyl-TVFRSSEPRRSADIFI-NH2; C-terminus assumed) | – | * (EC50>500 nM and % histamine>35%) |
| 105 | 60 | – | CCCCCCCCCCCCCCCC(=O)N[C@H](C(=O)N[C@H](C(=O)N[C@@H](Cc1ccccc1)C(=O)N[C@@H](CCCNC(=N)N)C(=O)N[C@@H](CO)C(=O)N[C@@H](CO)C(=O)N[C@@H](CCC(=O)O)C(=O)N[C@H](CCCCN)C(=O)N[C@@H](CCCNC(=N)N)C(=O)N[C@@H](CCCNC(=N)N)C(=O)N[C@@H](CO)C(=O)NC(C)(C)C(=O)N[C@@H](CC(=O)O)C(=O)N[C@H](C(=O)N[C@@H](Cc1ccccc1)C(=O)N[C@H](C(N)=O)[C@@H](C)CC)[C@@H](C)CC)C(C)C)[C@@H](C)O [Compound 64, TVFRSSEkRRS(Aib)DIFI] (Palmitoyl-TVFRSSE[dK]RRS[Aib]DIFI-NH2) | – | – |
| 62 | 56 | – | CCCCCCCCCCCCCCCC(=O)N[C@H](C(=O)N[C@H](C(=O)N[C@@H](Cc1ccccc1)C(=O)N[C@@H](CCCNC(=N)N)C(=O)N[C@@H](CO)C(=O)N[C@@H](CO)C(=O)N[C@@H](CCC(=O)O)C(=O)N[C@H](CCCCN)C(=O)N[C@@H](CCCNC(=N)N)C(=O)N[C@@H](CCCNC(=N)N)C(=O)N[C@@H](CO)C(=O)N[C@@H](C)C(=O)N[C@@H](CC(=O)O)C(=O)N[C@H](C(=O)N[C@@H](Cc1c[nH]cn1)C(=O)N[C@H](C(N)=O)[C@@H](C)CC)[C@@H](C)CC)C(C)C)[C@@H](C)O [Compound 18] (Palmitoyl-TVFRSSE[dK]RRSADIHI-NH2) | – | – |

| SMILES | Histimine (% vs. 48/40) (Histimine (% vs. 48/40)) [%] | percent intrinsic activity at 0.3 µM (APJ receptor) [%] | EC50 (APJ receptor; [1]) [nM] | EC50 (APJ receptor) [nM] | Ranking (APJ receptor) |
| --- | --- | --- | --- | --- | --- |
| CCCCCCCCCCCCCCCC(=O)N[C@H](C(=O)N[C@H](C(=O)N[C@@H](CC(=O)O)C(=O)N[C@@H](CCCNC(=N)N)C(=O)N[C@@H](CO)C(=O)N[C@@H](CO)C(=O)N[C@@H](CCC(=O)O)C(=O)N[C@H](CCCCN)C(=O)N[C@@H](CCCNC(=N)N)C(=O)N[C@@H](CCCNC(=N)N)C(=O)N[C@@H](CO)C(=O)N[C@@H](C)C(=O)N[C@@H](CC(=O)O)C(=O)N[C@H](C(=O)N[C@@H](Cc1ccccc1)C(=O)N[C@H](C(N)=O)[C@@H](C)CC)[C@@H](C)CC)C(C)C)[C@@H](C)O [Compound 35] (Palmitoyl-TVDRSSE[dK]RRSADIFI-NH2; C-terminus assumed) | 4 | 70 | – | 142 | **** (EC50 101-500 nM and % histamine<35%) |
| CCCCCCCCCCCCCCCC(=O)N[C@H](C(=O)NC(C)(C)C(=O)N[C@@H](Cc1ccccc1)C(=O)N[C@@H](CCCNC(=N)N)C(=O)N[C@@H](CO)C(=O)N[C@@H](CO)C(=O)N[C@@H](CCC(=O)O)C(=O)N[C@H](CCCCN)C(=O)N[C@@H](CCCNC(=N)N)C(=O)N[C@@H](CCCNC(=N)N)C(=O)N[C@@H](CO)C(=O)N[C@@H](C)C(=O)N[C@@H](CC(=O)O)C(=O)N[C@H](C(=O)N[C@@H](Cc1ccccc1)C(=O)N[C@H](C(N)=O)[C@@H](C)CC)[C@@H](C)CC)[C@@H](C)O [Compound 57] (Palmitoyl-T[Aib]FRSSE[dK]RRSADIFI-NH2; C-terminus assumed) | 39 | 77 | – | 68 | *** (EC50<100 nM and % histamine>35%) |
